Reference: patent publication US9133109B2, “Method for preparing bromourea” (Bromine Compounds Ltd., priority 2010, dated 2015)

Columns and labels:
[1] = test system: Pseudomonas aeruginosa (ATCC 15442); assay: Biocidal activity against simulated biofilm systems (alginate beads); assay type: cell-based
From the text: A biofilm simulation system, alginate beads, developed by the Biofilm Bozeman Institute Montana (Grobe, K. J, Zahller, J and Stewart P. S., 2002 in “Role of dose concentration in biocide efficacy against Pseudomonas aeruginosa Biofilms”, J. Industrial Microbiology & Biotechnology, vol. 29, pp 10-15), was used in order to evaluate the efficacy of bromine/urea against biofilm.
The biofilm simulation was created by entrapping bacteria in alginate gel beads. A plate of R2A agar was streaked with Pseudomonas aeruginosa (ATCC 15442) and incubated at 35° C. overnight. Buffer phosphate at pH 7.2 was used to scrap off the bacteria from the agar plate and to create a suspension. The bacterial suspension was mixed with an equal volume of an aqueous 4% sodium alginate solution, to make a final 2% alginate solution. The alginate and bacterial slurry were placed in a 50 ml syringe attached to a gauge needle (22), connected to a compressed air tank, allowing the syringe be pressurized. At 20 psig pressure a stream of small drops was forced out and dropped into a stirred solution of 50 mM CaCl2. The Ca^+2 cross linked the alginate, and semi solid beads with entrapped bacterial cells were formed. The beads were allowed to stir in the CaCl2 solution for about 20 minutes, and then rinsed in a dilute 5 mM CaCl2 solution. Several flasks containing 100 beads each were incubated overnight at 35° C. on a rotating shaker in a buffer solution (at pH 7) with 5 mM addition of CaCl2 to maintain the beads structure. The resulting beads diameter is about 2 mm
At the beginning of the experiment, the supernatant of the beads buffer suspension containing 5 mM CaCl2 was decanted and replaced by the 100 ml biocide solution with the required concentration. Chlorourea compositions prepared as in Example 1, and bromourera composition prepared as in Example 2, were used for the biocidal experiments. Urea-bromine compositions prepared by dissolving urea 15.02 g (250.3 mmol, 15% concentration) and 1.17 g Br2 (7.32 mmol, 1.17% concentration) in 84 g H2O (34.2:1 urea:Br2 molar ratio). After different interval contact times, 10 beads were removed and placed in a 5 g/l sodium thiosulfate solution containing 50 mM sodium citrate. The sodium citrate was used to dissolve the alginate gel and release the bacteria into the solution. The neutralizer-citrate solution was placed in the refrigerator for 2 hours, than diluted and placed on R2A agar plates using pour plate technique. The plates were incubated at 35° C. for 24-48 hours and counted. The efficacy and toxicity of the neutralizer were checked as well as a control experiment without biocide addition. Four concentrations (0.5, 1, 2.5 and 5 ppm) were tested at four different contact times (5, 15, 30, and 60 min). Table 1-2 describe the surviving colony forming units (CFU) of the bacteria after different biocides treatment at different contact times.

[2] = Stability of the prepared halourea solution; assay type: physicochemical; conditions: aqueous chlorourea solution, 1.27% as total Cl2
Experimental: In a 250 ml round bottom flask equipped with a magnetic stir bar, a dropping funnel and a thermocouple, 46.04 g urea (Mw 60, 767 mmol) was dissolved in 35.3 g H2O, followed by the addition (upon cooling, exothermic) of 5.37 g of 32% HCl (Mw 36.64, 46.9 mmol). To the solution was added upon cooling 13.3 g of an aq. 10.7% NaOCl solution (wt % as active Cl2, 20 mmol) during 14 min. A slightly yellow solution was obtained retaining 1.27% Cl2 (wt % as total Cl2, iodometric titration, in relation to 1.5% wt % theoretical as Cl2). […] The solution was stable for at least 1 week.
In a 250 ml round bottom flask equipped with a magnetic stir bar, a dropping funnel and a thermocouple, 46 g urea (Mw 60, 767 mmol) was dissolved in 31.8 g H2O, followed by the addition (upon cooling, exothermic) of 8.96 g of 48% HBr (Mw 80.92, 53.15 mmol). To the solution was added upon cooling 13.4 g of an aq. 10.7% NaOCl solution (wt %, as total Cl2, 20.2 mmol) during 10 min. An orange solution was obtained retaining 1% Cl2 (wt %, as total Cl2, iodometric titration, in relation to 1.43% theoretical). […] The solution was stable for at least 24 hrs.

[3] = biocide 0.5 ppm as Cl2, contact time 0 (min)
[4] = biocide 0.5 ppm as Cl2, contact time 5 min
[5] = biocide 0.5 ppm as Cl2, contact time 15 min
[6] = biocide 0.5 ppm as Cl2, contact time 30 min
[7] = biocide 0.5 ppm as Cl2, contact time 60 min
[8] = biocide 1 ppm as Cl2, contact time 0 (min)
[9] = biocide 1 ppm as Cl2, contact time 5 min
[10] = biocide 1 ppm as Cl2, contact time 15 min
[11] = biocide 1 ppm as Cl2, contact time 30 min
[12] = biocide 1 ppm as Cl2, contact time 60 min
[13] = biocide 2.5 ppm as Cl2, contact time 0 (min)
[14] = biocide 2.5 ppm as Cl2, contact time 5 min
[15] = biocide 2.5 ppm as Cl2, contact time 15 min
[16] = biocide 2.5 ppm as Cl2, contact time 30 min
[17] = biocide 2.5 ppm as Cl2, contact time 60 min
[18] = biocide 5 ppm as Cl2, contact time 0 (min)
[19] = biocide 5 ppm as Cl2, contact time 5 min
[20] = biocide 5 ppm as Cl2, contact time 15 min
[21] = biocide 5 ppm as Cl2, contact time 30 min
[22] = biocide 5 ppm as Cl2, contact time 60 min

NC(=O)NBr [bromourea]
survival of bacteria (CFU) [1, 3]: 9.22 × 10^6 CFU | survival of bacteria (CFU) [1, 4]: 8.10 × 10^6 CFU | survival of bacteria (CFU) [1, 5]: 8.00 × 10^6 CFU | survival of bacteria (CFU) [1, 6]: 3.50 × 10^6 CFU | survival of bacteria (CFU) [1, 7]: 7.37 × 10^5 CFU | survival of bacteria (CFU) [1, 8]: 9.22 × 10^6 CFU | survival of bacteria (CFU) [1, 9]: 9.30 × 10^6 CFU | survival of bacteria (CFU) [1, 10]: 1.73 × 10^6 CFU | survival of bacteria (CFU) [1, 11]: 1.00 × 10^4 CFU | survival of bacteria (CFU) [1, 12]: <1.00 CFU | survival of bacteria (CFU) [1, 13]: 9.22 × 10^6 CFU | survival of bacteria (CFU) [1, 14]: 2.72 × 10^6 CFU | survival of bacteria (CFU) [1, 15]: 6.08 × 10^2 CFU | survival of bacteria (CFU) [1, 16]: 5.00 × 10^1 CFU | survival of bacteria (CFU) [1, 17]: <1.00 CFU | survival of bacteria (CFU) [1, 18]: 9.22 × 10^6 CFU | survival of bacteria (CFU) [1, 19]: 3.00 × 10^5 CFU | survival of bacteria (CFU) [1, 20]: <1.00 CFU | survival of bacteria (CFU) [1, 21]: <1.00 CFU | survival of bacteria (CFU) [1, 22]: <1.00 CFU

NC(=O)NCl [chlorourea]
time for which the solution was stable [2]: at least 1 week | survival of bacteria (CFU) [1, 3]: 2.28 × 10^7 CFU | survival of bacteria (CFU) [1, 4]: 2.80 × 10^7 CFU | survival of bacteria (CFU) [1, 5]: 2.43 × 10^7 CFU | survival of bacteria (CFU) [1, 6]: 2.28 × 10^7 CFU | survival of bacteria (CFU) [1, 7]: 1.00 × 10^7 CFU | survival of bacteria (CFU) [1, 8]: 2.28 × 10^7 CFU | survival of bacteria (CFU) [1, 9]: 1.89 × 10^7 CFU | survival of bacteria (CFU) [1, 10]: 1.61 × 10^7 CFU | survival of bacteria (CFU) [1, 11]: 1.66 × 10^7 CFU | survival of bacteria (CFU) [1, 12]: 6.40 × 10^5 CFU | survival of bacteria (CFU) [1, 13]: 2.28 × 10^7 CFU | survival of bacteria (CFU) [1, 14]: 2.20 × 10^7 CFU | survival of bacteria (CFU) [1, 15]: 1.42 × 10^7 CFU | survival of bacteria (CFU) [1, 16]: 3.56 × 10^5 CFU | survival of bacteria (CFU) [1, 17]: 1.58 × 10^3 CFU | survival of bacteria (CFU) [1, 18]: 2.28 × 10^7 CFU | survival of bacteria (CFU) [1, 19]: 2.16 × 10^7 CFU | survival of bacteria (CFU) [1, 20]: 1.00 × 10^6 CFU | survival of bacteria (CFU) [1, 21]: 3.25 × 10^3 CFU | survival of bacteria (CFU) [1, 22]: <1.00 CFU
